Results taken from patent US7442398B2, “Phytase produced from Citrobacter braakii” (Republic of National Fisheries Research and Development …, priority 2003, dated 2008).

Experiments:
[1] = target: T1, Citrobacter braakii YH-15 phytase, wild type, SEQ. ID. No 7 (N-terminal SEQ. ID. No 2) (Citrobacter braakii, UniProt Q2VY22); test: Enzyme activity of YH-15 phytase according to metal ions and inhibitors; assay type: biochemical; details: for effect of inhibitor on enzyme activity: concentration not given, reagents involved in disulfate bond
T1 construct: signal peptide removed
Experimental: (§1) The present inventors measured the activity of phytase produced by the 5 strains above (Table 1). Inorganic phosphorus quantitative method of Fiske, et al. was used for measuring the activity of phytase in culture solution and in cell precipitate. Particularly, 400 μl of substrate solution (2 mM sodium phytate in 0.1 M sodium acetate buffer, pH 5.0) was added to 100 μl of enzyme solution diluted by required dilution ratio, which was reacted at 37° C. for 30 minutes. Then, 500 μl of 5% TCA solution was added thereto, which was just left at 0° C. for 10 minutes to stop the reaction. As for a control (blank), TCA (trichloroacetic acid) solution was added to enzyme solution to inactivate the enzyme and then substrate solution was added thereto, which was left for a while. 4 ml of reagent A (1:1:1:2 ratio of 6 N H2SO4/2.5% ammonium molybdate/10% ascorbic acid/H2O) was added, followed by reaction at 37° C. for 30 minutes. Then, activities in enzyme solution and in a control were measured at 820 nm. 1 unit of the enzyme was determined to be the enzyme amount releasing 1 μmole of phosphate for 1 minute.
(§2) The present inventors investigated the effect of metal ions and inhibitors on the enzyme activity of phytase of the present invention.

YH-15 phytase [2] = test: Substrate specificity of phytase; assay type: biochemical, Citrobacter braakii YH-15; details: for Relative activity (%): substrate, phytate = 100
From the text: (§3) Substrate specificity of phytase to various phosphate ester compounds was investigated.

YH-15 phytase [3] = test: Enzyme activity of phytase according to metal ions and inhibitors; assay type: biochemical, Citrobacter braakii YH-15; details: for inhibition of enzyme activity by metal ions: concentration of 10 mM; for enzyme activity after being left with denaturant: 37° C. for 2 hours, 8 M urea or 0.0024% SDS
From the text: as §2

[4] = target: T1, Citrobacter braakii YH-15 phytase, wild type, SEQ. ID. No 7 (N-terminal SEQ. ID. No 2); test: Substrate kinetics of purified YH-15 phytase (phosphate release from phytate); assay type: biochemical; details: substrate phytate (sodium phytate)
Experimental: as §1
(§4) The enzyme activity of phytase included in each sample prepared from each purification stage of the above Example <3-2> was investigated (Table 3). Protein content was quantified by BCA protein quantification kit provided by Sigma, co. At that time, BSA (bovine serum albumin) was used as a standard protein. Specific activity of the purified phytase to phytate was 3,457 units/mg, recovery rate was 28%, and the final phytase was purified by 12,950 fold (FIG. 2).
as §3

[5] = tested on: O=P(O)(O)O[C@H]1[C@H](OP(=O)(O)O)[C@@H](OP(=O)(O)O)[C@H](OP(=O)(O)O)[C@@H](OP(=O)(O)O)[C@H]1OP(=O)(O)O; test: as above; assay type: biochemical, Citrobacter braakii YH-15; details: other: substrate phytate (sodium phytate); pH 5.0; 37.0 °C
Experimental: as §1, §4, §3

[6] = Specific activity and kinetics of purified phytase to phytate; assay type: biochemical, Citrobacter braakii YH-15
Experimental: as §1
The enzyme activity of phytase included in each sample prepared from each purification stage of the above Example <3-2> was investigated (Table 3). Protein content was quantified by BCA protein quantification kit provided by Sigma, co. […]

[7] = Enzyme activity of phytase according to temperature and pH; assay type: biochemical, Citrobacter braakii YH-15
Experimental: The present invention investigated an enzyme activity of phytase, according to temperature and pH, purified through chromatography using Mono S column.
When the enzyme was left at 55° C. for 10 minutes, 75% of the activity was still remained.
50% of the enzyme activity was still maintained at pH 2.5. […] But, as the protein was left under pH 3.0 for 4 hours, the enzyme activity was almost lost. From temperature and pH test with the protein, phytase of the present invention was believed to be very suitable for being used as a feed additive for monogastric animals.

proteases = test: Effect of proteases on the enzyme activity of phytase; assay type: biochemical
Experimental: The present inventors investigated the effect of proteases on the enzyme activity of phytase. Particularly, phytase was left at 37° C. for 2 hours with pepsin and trypsin, resulting in no changes in the enzyme activity. But, as papain, elastase and pancreatin were added, 70˜85% of the enzyme activity remained.

For OCCS [2-mercaptoethanol], the “effect of inhibitor on enzyme activity” value [1] was “hardly affected”.

With Nc1ncnc2c1ncn2[C@@H]1O[C@H](COP(=O)(O)OP(=O)(O)O)[C@@H](O)[C@H]1O [ADP] the “Relative activity (%)” value (YH-15 phytase [2]) was 1.04%.

For Nc1ncnc2c1ncn2[C@@H]1O[C@H](COP(=O)(O)OP(=O)(O)OP(=O)(O)O)[C@@H](O)[C@H]1O [ATP], the “Relative activity (%)” value (YH-15 phytase [2]) was 1.86%.

For [Ca+2].[Cl-].[Cl-] [CaCl2], the “Relative activity (%)” value (YH-15 phytase [3]; metal ion or inhibitor 6 mM) was 87%.

With [Cl][Cd][Cl] [CdCl2] the “Relative activity (%)” value (YH-15 phytase [3]; metal ion or inhibitor 6 mM) was 101%.

For O=S(=O)([O-])[O-].[Cu+2] [CuSO4], the “inhibition of enzyme activity by metal ions” value (“inhibition … by metal ions” below) (YH-15 phytase [3]) was “strongly inhibited” and the “Relative activity (%)” value (YH-15 phytase [3]; metal ion or inhibitor 6 mM) was 38%.

Work on O=C(O)CN(CCN(CC(=O)O)CC(=O)O)CC(=O)O [EDTA] yielded an activity at 6000 µM ([1]; read-out: Relative activity (%)) of 98%.

With [Cl][Fe]([Cl])[Cl] [FeCl3] the “inhibition … by metal ions” value (YH-15 phytase [3]) was “strongly inhibited” and the “Relative activity (%)” value (YH-15 phytase [3]; metal ion or inhibitor 6 mM) was 19%.

With O=C(CO)[C@@H](O)[C@H](O)[C@H](O)COP(=O)(O)O [Fructose-6-phosphate] the “Relative activity (%)” value (YH-15 phytase [2]) was 0.75%.

With O=P(O)(O)O[C@H]1O[C@H](CO)[C@@H](O)[C@H](O)[C@H]1O [Glucose-1-phosphate] the “Relative activity (%)” value (YH-15 phytase [2]) was 0.42%.

For O=C[C@H](O)[C@@H](O)[C@H](O)[C@H](O)COP(=O)(O)O [Glucose-6-phosphate], the “Relative activity (%)” value (YH-15 phytase [2]) was 0.33%.

In the case of O=P(O)(O)OCC(O)CO (centres unmarked) [Glycerophosphate], the “Relative activity (%)” value (YH-15 phytase [2]) is reported as 0.57%.

For [Cl-].[K+] [KCl], the “Relative activity (%)” value (YH-15 phytase [3]; metal ion or inhibitor 6 mM) was 95%.

For O=C[C@@H](O)[C@@H](O)[C@H](O)[C@H](O)COP(=O)(O)O [Mannose-6-phosphate], the “Relative activity (%)” value (YH-15 phytase [2]) was 0.01%.

In the case of [Cl-].[Cl-].[Mg+2] [MgCl2], the “Relative activity (%)” value (YH-15 phytase [3]; metal ion or inhibitor 6 mM) is reported as 71%.

For [Cl][Mn][Cl] [MnCl2], the “Relative activity (%)” value (YH-15 phytase [3]; metal ion or inhibitor 6 mM) was 92%.

In the case of [Cl-].[Na+] [NaCl], the “inhibition of enzyme activity” value (YH-15 phytase [3]; concentration of 1 M) is reported as 50%, the “Relative activity (%)” value (YH-15 phytase [3]; metal ion or inhibitor 6 mM) is reported as 102% and the “Relative activity (%)” value (YH-15 phytase [3]; metal ion or inhibitor 1000 mM) is reported as 54%.

For O=S(=O)([O-])[O-].[Ni+2] [NiSO4], the “Relative activity (%)” value (YH-15 phytase [3]; metal ion or inhibitor 6 mM) was 88%.

In the case of O=P(O)(O)O[C@H]1[C@H](OP(=O)(O)O)[C@@H](OP(=O)(O)O)[C@H](OP(=O)(O)O)[C@@H](OP(=O)(O)O)[C@H]1OP(=O)(O)O [Phytate, myo-inositol 1,2,3,4,5,6 hexakis dihydrogen phosphate], the “ability of phytase to decompose the substrate” value (YH-15 phytase [2]) is reported as “strong ability to decompose” and the “Relative activity (%)” value (YH-15 phytase [2]) is reported as 100%.

With CCCCCCCCCCCCOS(=O)(=O)[O-].[Na+] [SDS] the “enzyme activity after being left with denaturant” value (YH-15 phytase [3]) was “almost lost”.

For O=P([O-])([O-])OP(=O)([O-])[O-].[Na+].[Na+].[Na+].[Na+] [Tetrasodium pyrophosphate], the “Relative activity (%)” value (YH-15 phytase [2]) was 5.95%.

With O=S(=O)([O-])[O-].[Zn+2] [ZnSO4] the “inhibition … by metal ions” value (YH-15 phytase [3]) was “strongly inhibited” and the “Relative activity (%)” value (YH-15 phytase [3]; metal ion or inhibitor 8 mM) was 33%.

For OC(CS)C(O)CS (centres unmarked) [dithothreitol], the “effect of inhibitor on enzyme activity” value [1] was “hardly affected”.

In the case of O=[N+]([O-])c1ccc(OP(=O)(O)O)cc1 [p-nitrophenyl phosphate], the “Relative activity (%)” value (YH-15 phytase [2]) is reported as 11.27%.

In the case of O=P(O)(O)O[C@H]1[C@H](OP(=O)(O)O)[C@@H](OP(=O)(O)O)[C@H](OP(=O)(O)O)[C@@H](OP(=O)(O)O)[C@H]1OP(=O)(O)O [phytate, myo-inositol 1,2,3,4,5,6 hexakis dihydrogen phosphate], the Vmax [4] is reported as 6,027 U/mg.

For NC(N)=O [urea], the “enzyme activity after being left with denaturant” value (YH-15 phytase [3]) was “almost lost” and the “enzyme activity after incubation with inhibitor” value ([1]; 8 M, 37° C., 2 hours) was “almost lost”.

For “Citrobacter braakii YH-15 phytase, wild type, SEQ. ID. No 7 (N-terminal SEQ. ID. No 2) (Citrobacter braakii)”, the Km [5] was 460 µM and the Vmax [5] was 6,027 U/mg.

B1: YH-15 phytase: novel phytase enzyme of about 47 kDa produced by Citrobacter braakii YH-15, SEQ. ID. No 7 (protein)
chain: MSTFIIRLLIFSLLCGSFSIHAEEQNGMKLERVVIVSRHGVRAPTKFTPIMKDVTPDQWPQWDVPLGWLTPRGGELVSELGQYQRLWFTSKGLLNNQTCPSPGQVAVIADTDQRTRKTGEAFLAGLAPKCQIQVHYQKDEEKNDPLFNPVKMGKCSFNTLKVKNAILERAGGNIELYTQRYQSSFRTLENVLNFSQSETCKTTEKSTKCTLPEALPSEFKVTPDNVSLPGAWSLSSTLTEIFLLQEAQGMPQVAWGRITGEKEWRDLLSLHNAQFDLLQRTPEVARSRATPLLDMIDTALLTNGTTENRYGIKLPVSLLFIAGHDTNLANLSGALDLKWSLPGQPDNTPPGGELVFEKWKRTSDNTDWVQVSFVYQTLRDMRDIQPLSLEKPAGKVDLKLIACEEKNSQGMCSLKSFSRLIKEIRVPECAVTE
modifications: Citrobacter braakii YH-15; PEPTIDE (1)..(433) phytase
In the case of B1, the “Specific activity of the purified phytase to phytate” value ([6]; final purified phytase) is reported as 3,457 units/mg, the Specific activity ([6]; purification stage Mono SHR 5/5 (final)) is reported as 3,457 U/mg and the “pH of highest activity” value [7] is reported as 4.0. For the same molecule, the “temperature of highest activity” value [7] was 50 °C, the “activity on storage at pH 3.0-4.5” value ([7]; 37° C., pH 3.0-4.5, 7 days) was “very stably maintained” and the “activity remained at pH 7.0” value ([7]; 37° C., pH 7.0, 7 days) was 50%. For the same molecule, the “activity after holding at 50° C.” value ([7]; 50° C. for 1 hour) was “stably maintained”, the “activity remained after heat” value ([7]; left at 55° C. for 10 minutes) was 75% and the “enzyme activity maintained at pH 2.5” value ([7]; pH 2.5) was 50%. The “activity after being left under pH 3.0” value ([7]; under pH 3.0 for 4 hours) was “almost lost”, the “enzyme activity after pepsin” value (proteases; 37° C. for 2 hours with pepsin) was “no changes” and the “enzyme activity after trypsin” value (proteases; 37° C. for 2 hours with trypsin) was “no changes”. The “enzyme activity remained after elastase” value (proteases; elastase added) was 70˜85%, the “enzyme activity remained after pancreatin” value (proteases; pancreatin added) was 70˜85% and the “enzyme activity remained after papain” value (proteases; papain added) was 70˜85%.
